Assay: Intrinsic clearance in human liver microsomes
Format: ADME, Microsome
Conditions: read-out: CLH

predicted hepatic clearance: 12.7 mL/min/kg
SMILES: O[C@@H](C[C@H]1c2c(F)cccc2-c2cncn21)[C@H]1CC[C@@H](O)CC1
